In ChEMBL document CHEMBL1201862, “PubChem BioAssay data set” (2004):
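Dose response: 5 concentrations. Exposure: 48 h. Format: 96-well plates. Endpoint: linear interpolation; highest concentration if not reached. GI50 marks 50% less growth.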 Activity calls are given as the source filed them. Cut-off read from the data, not from the text of the source: active = GI50 up to about 1.1 µM and inactive = higher.

Experiments:
Assay in all cases: inhibition of tumour cell growth, NCI panel, 48 h
786-0 = system: 786-0
A498 = system: A498
A549 = system: A549
ACHN = system: ACHN
BT-549 = system: BT-549
CAKI-1 = system: CAKI-1
CCRF-CEM = system: CCRF-CEM
COLO 205 = system: COLO 205
DU-145 = system: DU-145
EKVX = system: EKVX
HCC 2998 = system: HCC 2998
HCT-116 = system: HCT-116
HCT-15 = system: HCT-15
HL-60 = system: HL-60
HOP-62 = system: HOP-62
HOP-92 = system: HOP-92
HT-29 = system: HT-29
Hs-578T = system: Hs-578T
IGROV-1 = system: IGROV-1
K562 = system: K562
KM12 = system: KM12
LOX IMVI = system: LOX IMVI
M14 = system: M14
MCF7 = system: MCF7
MDA-MB-231 = system: MDA-MB-231
MDA-MB-435 = system: MDA-MB-435
MDA-N = system: MDA-N
MOLT-4 = system: MOLT-4
Malme-3M = system: Malme-3M
NCI-H226 = system: NCI-H226
NCI-H23 = system: NCI-H23
NCI-H460 = system: NCI-H460
NCI-H522 = system: NCI-H522
NCI/ADR-RES = system: NCI/ADR-RES
OVCAR-3 = system: OVCAR-3
OVCAR-4 = system: OVCAR-4
OVCAR-5 = system: OVCAR-5
OVCAR-8 = system: OVCAR-8
PC-3 = system: PC-3
RPMI-8226 = system: RPMI-8226
RXF 393 = system: RXF 393
SF-268 = system: SF-268
SF-295 = system: SF-295
SF-539 = system: SF-539
SK-MEL-28 = system: SK-MEL-28
SK-MEL-2 = system: SK-MEL-2
SK-MEL-5 = system: SK-MEL-5
SK-OV-3 = system: SK-OV-3
SN12C = system: SN12C
SNB-19 = system: SNB-19
SNB-75 = system: SNB-75
SR = system: SR
SW-620 = system: SW-620
T47D = system: T47D
TK-10 = system: TK-10
U-251 = system: U-251
UACC-257 = system: UACC-257
UACC-62 = system: UACC-62
UO-31 = system: UO-31

Measured: GI50

Cc1ccc2nc(CC(=O)c3ccc4ccccc4c3)c(O)nc2c1
> 100 µM: HCT-15
inactive: 786-0 > 100 µM | A498 > 100 µM | A549 > 100 µM | ACHN > 100 µM | BT-549 > 100 µM | CAKI-1 > 100 µM | CCRF-CEM > 100 µM | COLO 205 > 100 µM | DU-145 > 100 µM | EKVX > 100 µM | HCC 2998 > 100 µM | HCT-116 > 100 µM | HL-60 > 100 µM | HOP-62 > 100 µM | HOP-92 > 100 µM | HT-29 66.2 µM | Hs-578T > 100 µM | IGROV-1 > 100 µM | K562 > 100 µM | KM12 > 100 µM | LOX IMVI > 100 µM | M14 > 100 µM | MCF7 > 100 µM | MDA-MB-231 > 100 µM | MDA-MB-435 > 100 µM | MDA-N > 100 µM | MOLT-4 > 100 µM | Malme-3M > 100 µM | NCI-H226 > 100 µM | NCI-H23 > 100 µM | NCI-H460 > 100 µM | NCI-H522 > 100 µM | NCI/ADR-RES > 100 µM | OVCAR-3 > 100 µM | OVCAR-4 > 100 µM | OVCAR-5 > 100 µM | OVCAR-8 > 100 µM | PC-3 > 100 µM | RPMI-8226 > 100 µM | RXF 393 > 100 µM | SF-268 > 100 µM | SF-295 > 100 µM | SF-539 > 100 µM | SK-MEL-28 > 100 µM | SK-MEL-2 > 100 µM | SK-MEL-5 > 100 µM | SK-OV-3 > 100 µM | SN12C > 100 µM | SNB-19 > 100 µM | SNB-75 > 100 µM | SR > 100 µM | SW-620 > 100 µM | T47D > 100 µM | TK-10 > 100 µM | U-251 > 100 µM | UACC-257 > 100 µM | UACC-62 > 100 µM | UO-31 > 100 µM

O=C1NCCN1/N=C/c1c(Cl)n(-c2ccccc2)c2ccccc12
inactive: 786-0 26.1 µM | A498 17.5 µM | A549 23.9 µM | ACHN 23.9 µM | BT-549 15.4 µM | CAKI-1 17.3 µM | CCRF-CEM 29 µM | COLO 205 14.3 µM | DU-145 14.6 µM | EKVX 25.5 µM | HCC 2998 17.8 µM | HCT-116 19.5 µM | HL-60 27.4 µM | HOP-62 94.4 µM | HOP-92 23.6 µM | HT-29 17.4 µM | Hs-578T 13.4 µM | IGROV-1 17.2 µM | K562 24.5 µM | KM12 15.7 µM | LOX IMVI 13.5 µM | M14 17.5 µM | MCF7 22.1 µM | MDA-MB-231 13.6 µM | MDA-MB-435 12.4 µM | MDA-N 9.25 µM | MOLT-4 36.9 µM | Malme-3M 16.6 µM | NCI-H226 20.4 µM | NCI-H23 18.5 µM | NCI-H522 16.1 µM | NCI/ADR-RES 19.5 µM | OVCAR-3 66.4 µM | OVCAR-4 48.1 µM | OVCAR-5 44.1 µM | OVCAR-8 22.3 µM | PC-3 29 µM | RPMI-8226 22.4 µM | RXF 393 > 10 µM | SF-268 20.1 µM | SF-295 29.4 µM | SF-539 10.4 µM | SK-MEL-2 25 µM | SK-MEL-5 15.5 µM | SK-OV-3 46.2 µM | SN12C 18.7 µM | SNB-19 23.1 µM | SNB-75 21.1 µM | SR 28 µM | SW-620 21.1 µM | T47D 15.2 µM | TK-10 14.8 µM | U-251 21.7 µM | UACC-257 22.4 µM | UACC-62 16 µM | UO-31 19.1 µM
17.6 µM: HCT-15
